# Measurements from ChEMBL document CHEMBL4257573, “Synthesis, modification, and cytotoxic evaluation of 2,3-secotriterpenic β-ketoesters” (Bioorg Med Chem Lett, 2018).
# Activity calls are given as the source filed them. The calls are words filed in the database; no cut-off is given here.
# Legend:
# [1] = Selectivity index, ratio of IC50 for HEK293 cells to IC50 for human Hep2 cells; format: toxicity; conditions: HEK293 cells versus Hep2 cells, read-out: Ratio IC50
# HCT-116 [2] = experiment: Induction of apoptosis in human HCT116 cells assessed as necrotic cells at 2 uM after 18 hrs by Annexin V/7-AAD staining based flow cytometric analysis (reference value: 0.62%); format: functional
# HCT-116 [3] = experiment: Induction of apoptosis in human HCT116 cells assessed as late apoptotic cells at 2 uM after 18 hrs by Annexin V/7-AAD staining based flow cytometric analysis (reference value: 2.12%); format: functional
# A549 = experiment: Cytotoxicity against human A549 cells assessed as reduction in cell viability after 72 hrs by MTT assay; format: functional, cell-based; conditions: A549, 72 h
# HCT-116 [4] = experiment: Cell cycle arrest in human HCT116 cells assessed as accumulation at G2/M phase at 2 uM after 18 hrs by DAPI staining-based flow cytometric analysis (RVB = 17.25%); format: functional
# [5] = Selectivity index, ratio of IC50 for HEK293 cells to IC50 for human MCF7 cells; format: toxicity; conditions: HEK293 cells versus MCF7 cells, read-out: Ratio IC50
# RD = experiment: Cytotoxicity against human RD cells assessed as reduction in cell viability after 72 hrs by MTT assay; format: functional, cell-based
# HCT-116 [6] = experiment: Induction of apoptosis in human HCT116 cells assessed as early apoptotic cells at 2 uM after 18 hrs by Annexin V/7-AAD staining based flow cytometric analysis (reference value: 5.84%); format: functional
# HCT-116 [7] = experiment: Cell cycle arrest in human HCT116 cells assessed as accumulation at G0/G1 phase at 2 uM after 18 hrs by DAPI staining-based flow cytometric analysis (RVB = 47.72%); format: functional
# [8] = Selectivity index, ratio of IC50 for HEK293 cells to IC50 for human MS cells; format: toxicity; conditions: HEK293 cells versus MS cells, read-out: Ratio IC50
# HCT-116 [9] = experiment: Cell cycle arrest in human HCT116 cells assessed as accumulation at sub-G0 phase at 2 uM after 18 hrs by DAPI staining-based flow cytometric analysis (RVB = 8.55%); format: functional
# HEK293 = experiment: Cytotoxicity against HEK293 cells assessed as reduction in cell viability after 72 hrs by MTT assay; format: cell-based; conditions: Homo sapiens, HEK293, 72 h
# HCT-116 [10] = experiment: Cytotoxicity against human HCT116 cells assessed as reduction in cell viability after 72 hrs by MTT assay; format: functional, cell-based; conditions: for IC50: HCT-116, 72 h
# HCT-116 [11] = experiment: Antimigratory activity in human HCT116 cells at 2 uM after 96 hrs by wound healing assay; format: functional, cell-based
# HCT-116 [12] = experiment: Induction of apoptosis in human HCT116 cells assessed as viable cells at 2 uM after 18 hrs by Annexin V/7-AAD staining based flow cytometric analysis (reference value: 91.42%); format: functional; conditions: HCT-116, 18 h, read-out: Activity
# MCF7 = experiment: Cytotoxicity against human MCF7 cells assessed as reduction in cell viability after 72 hrs by MTT assay; format: functional, cell-based; conditions: MCF7, 72 h
# HCT-116 [13] = experiment: Cytotoxicity against human HCT116 cells assessed as reduction in cell viability at 2 uM by MTT assay; format: functional, cell-based; conditions: TDE = time-dependent effect
# HCT-116 [14] = experiment: Cell cycle arrest in human HCT116 cells assessed as accumulation at S phase at 2 uM after 18 hrs by DAPI staining-based flow cytometric analysis (RVB = 25.49%); format: functional
# [15] = Cytotoxicity against human MS cells assessed as reduction in cell viability after 72 hrs by MTT assay; format: functional, cell-based
# HCT-116 [16] = experiment: Cell cycle arrest in human HCT116 cells assessed as accumulation at G0/G1 phase at 3 uM after 18 hrs by DAPI staining-based flow cytometric analysis (RVB = 47.72%); format: functional
# HCT-116 [17] = experiment: Induction of apoptosis in human HCT116 cells assessed as viable cells at 6 uM after 18 hrs by Annexin V/7-AAD staining based flow cytometric analysis (reference value: 91.42%); format: functional; conditions: HCT-116, 18 h, read-out: Activity
# HCT-116 [18] = experiment: Induction of apoptosis in human HCT116 cells assessed as late apoptotic cells at 6 uM after 18 hrs by Annexin V/7-AAD staining based flow cytometric analysis (reference value: 2.12%); format: functional
# HCT-116 [19] = experiment: Induction of apoptosis in human HCT116 cells assessed as increase in early apoptotic cells after 18 hrs by Annexin V/7-AAD staining based flow cytometric analysis; format: functional, cell-based
# HCT-116 [20] = experiment: Induction of apoptosis in human HCT116 cells assessed as necrotic cells at 6 uM after 18 hrs by Annexin V/7-AAD staining based flow cytometric analysis (reference value: 0.62%); format: functional
# HCT-116 [21] = experiment: Induction of apoptosis in human HCT116 cells assessed as viable cells at 3 uM after 18 hrs by Annexin V/7-AAD staining based flow cytometric analysis (reference value: 91.42%); format: functional; conditions: HCT-116, 18 h, read-out: Activity
# HCT-116 [22] = experiment: Cytotoxicity against human HCT116 cells assessed as reduction in cell viability at 3 to 6 uM by MTT assay; format: functional, cell-based; conditions: TDE = time-dependent effect
# HCT-116 [23] = experiment: Cell cycle arrest in human HCT116 cells assessed as accumulation at G2/M phase at 6 uM after 18 hrs by DAPI staining-based flow cytometric analysis (RVB = 17.25%); format: functional
# HCT-116 [24] = experiment: Induction of apoptosis in human HCT116 cells assessed as early apoptotic cells at 3 uM after 18 hrs by Annexin V/7-AAD staining based flow cytometric analysis (reference value: 5.84%); format: functional
# HCT-116 [25] = experiment: Cell cycle arrest in human HCT116 cells assessed as decrease in accumulation at G0/G1 phase after 18 hrs by DAPI staining-based flow cytometric analysis; format: functional
# HCT-116 [26] = experiment: Induction of apoptosis in human HCT116 cells assessed as increase in number of cells with condense nucleus at 3 uM after 18 hrs by Hoechst 33258 /rhodamine 123 staining based fluorescence inverted microscopic analysis; format: functional, cell-based
# HCT-116 [27] = experiment: Induction of apoptosis in human HCT116 cells assessed as decrease in viable cells after 18 hrs by Annexin V/7-AAD staining based flow cytometric analysis; format: functional, cell-based
# HCT-116 [28] = experiment: Cell cycle arrest in human HCT116 cells assessed as accumulation at G0/G1 phase at 6 uM after 18 hrs by DAPI staining-based flow cytometric analysis (RVB = 47.72%); format: functional
# HCT-116 [29] = experiment: Cell cycle arrest in human HCT116 cells assessed as accumulation at G2/M phase at 3 uM after 18 hrs by DAPI staining-based flow cytometric analysis (RVB = 17.25%); format: functional
# HCT-116 [30] = experiment: Induction of mitochondrial membrane depolarization in human HCT116 cells at 3 uM after 18 hrs by Hoechst 33258 /rhodamine 123 staining based fluorescence inverted microscopic analysis; format: functional, cell-based
# HCT-116 [31] = experiment: Induction of apoptosis in human HCT116 cells assessed as late apoptotic cells at 3 uM after 18 hrs by Annexin V/7-AAD staining based flow cytometric analysis (reference value: 2.12%); format: functional
# HCT-116 [32] = experiment: Cell cycle arrest in human HCT116 cells assessed as accumulation at sub-G0 phase at 3 uM after 18 hrs by DAPI staining-based flow cytometric analysis (RVB = 8.55%); format: functional
# HCT-116 [33] = experiment: Cell cycle arrest in human HCT116 cells assessed as accumulation at S phase at 6 uM after 18 hrs by DAPI staining-based flow cytometric analysis (RVB = 25.49%); format: functional
# HEp-2 = experiment: Cytotoxicity against human Hep2 cells assessed as reduction in cell viability after 72 hrs by MTT assay; format: functional, cell-based; conditions: HEp-2, 72 h
# HCT-116 [34] = experiment: Cell cycle arrest in human HCT116 cells assessed as accumulation at sub-G0 phase at 6 uM after 18 hrs by DAPI staining-based flow cytometric analysis (RVB = 8.55%); format: functional
# HCT-116 [35] = experiment: Induction of apoptosis in human HCT116 cells assessed as early apoptotic cells at 6 uM after 18 hrs by Annexin V/7-AAD staining based flow cytometric analysis (reference value: 5.84%); format: functional
# HCT-116 [36] = experiment: Cell cycle arrest in human HCT116 cells assessed as accumulation at S phase at 3 uM after 18 hrs by DAPI staining-based flow cytometric analysis (RVB = 25.49%); format: functional
# HCT-116 [37] = experiment: Induction of apoptosis in human HCT116 cells assessed as necrotic cells at 3 uM after 18 hrs by Annexin V/7-AAD staining based flow cytometric analysis (reference value: 0.62%); format: functional
# HCT-116 [38] = experiment: Antimigratory activity in human HCT116 cells after 96 hrs by wound healing assay; format: functional, cell-based
compound,measurement,setting,value
CC[C@@]1(O)C(=O)OCc2c1cc1n(c2=O)Cc2cc3ccccc3nc2-1 [CAMPTOTHECIN],selectivity ratio,[1],0.53 to 40.2
same,Activity,HCT-116 [2],5.08%
same,Activity,HCT-116 [3],7.33%
same,IC50,A549,1.31 µM
same,Activity,HCT-116 [4],10.06%
same,selectivity ratio,[5],0.53 to 40.2
same,IC50,RD,1720 nM
same,Activity,HCT-116 [6],5.73%
same,Activity,HCT-116 [7],27.71%
same,selectivity ratio,[8],0.53 to 40.2
same,Activity,HCT-116 [9],24.52%
same,IC50,HEK293,1.61 µM
same,Activity,HCT-116 [10],Dose-dependent effect
same,Activity,HCT-116 [11],Active
same,viability at 2 µM,HCT-116 [12],81.9%
same,IC50,MCF7,0.04 µM
same,Activity,HCT-116 [13],Tde
same,Activity,HCT-116 [14],36.77%
same,IC50,[15],770 nM
C=C(C=O)[C@@H]1CC[C@]2(C(=O)OC)CC[C@]3(C)[C@H](CC[C@@H]4[C@@](C)(CC#N)[C@H](C(C)(C)C(=O)COC(C)=O)CC[C@]43C)[C@@H]12,selectivity ratio,[1],2.42 to 9.61
same,IC50,A549,10.2 µM
same,Activity,HCT-116 [16],35.65%
same,viability at 6 µM,HCT-116 [17],58.5%
same,selectivity ratio,[5],2.42 to 9.61
same,IC50,RD,3500 nM
same,Activity,HCT-116 [18],11.2%
same,Activity,HCT-116 [19],Dose-dependent effect
same,Activity,HCT-116 [20],3.21%
same,viability at 3 µM,HCT-116 [21],71.3%
same,selectivity ratio,[8],2.42 to 9.61
same,Activity,HCT-116 [22],Tde
same,Activity,HCT-116 [23],15.27%
same,Activity,HCT-116 [24],14.06%
same,Activity,HCT-116 [25],Dose-dependent effect
same,IC50,HEK293,29.5 µM
same,Activity,HCT-116 [26],Active
same,Activity,HCT-116 [27],Dose-dependent effect
same,Activity,HCT-116 [28],21.49%
same,Activity,HCT-116 [10],Dose-dependent effect
same,IC50,HCT-116 [10],3.07 µM
same,Activity,HCT-116 [29],19.99%
same,Activity,HCT-116 [30],Active
same,Activity,HCT-116 [31],11.99%
same,IC50,MCF7,9.68 µM
same,Activity,HCT-116 [32],15.07%
same,Activity,HCT-116 [33],24.03%
same,IC50,HEp-2,12.2 µM
same,Activity,HCT-116 [34],38.29%
same,Activity,HCT-116 [35],27.07%
same,Activity,HCT-116 [36],28.16%
same,Activity,HCT-116 [37],2.6%
same,IC50,[15],3610 nM
same,Activity,HCT-116 [38],Dose-dependent effect
COc1cccc2c1C(=O)c1c(O)c3c(c(O)c1C2=O)C[C@@](O)(C(=O)CO)C[C@@H]3O[C@H]1C[C@H](N)[C@H](O)[C@H](C)O1 [DOXORUBICIN],IC50,RD,1270 nM
same,IC50,HEK293,0.02 µM
same,Activity,HCT-116 [10],Dose-dependent effect
same,Activity,HCT-116 [13],Tde
same,IC50,HEp-2,1.78 µM
same,IC50,[15],1290 nM
C=C(C=O)[C@@H]1CC[C@]2(C(=O)OC)CC[C@]3(C)[C@H](CC[C@@H]4[C@]5(C)[C@@H](CC[C@]43C)C(C)(C)[C@@](O)(CO)[C@H]5C#N)[C@@H]12,selectivity ratio,[1],4.08 to 20.2
same,IC50,A549,28.8 µM
same,selectivity ratio,[5],4.08 to 20.2
same,IC50,RD,5830 nM
same,selectivity ratio,[8],4.08 to 20.2
same,IC50,HEK293,118 µM
same,IC50,HCT-116 [10],9.32 µM
same,IC50,MCF7,8.39 µM
same,IC50,HEp-2,23.7 µM
same,IC50,[15],12300 nM
